# Like-named read-outs stand apart in the source and are kept apart here.
# Assays:
# [1] = test system: DPD1850 (spoT), DPD1848 (spoT), DPD1865 (rpoZ) and the EC100 control; conditions: 0.5% (w/v) 1-butanol; LB, 37° C.; FIG. 2
# Method: After a further 2 hr incubation at 37° C. with shaking, 200 μl samples were transferred to a microtiter plate and optical density at A600 recorded. The microtiter plate was moved to a platform shaker that was located within a plastic box that is in a 37° C. incubator.
# [2] = test system: E. coli strain EC100; conditions: LB agar, closed chamber, 37° C., 1 day
# Method: LB agar media supplemented with butanol was prepared fresh one day before innoculating at an appropriate volume and cooled for 2 hours in a 50° C. water bath. LB agar plates supplemented with butanol were prepared by dispensing 67 mls of melted agar, using a peristaltic pump and sterile Nalgene tubing, into sterile Omni trays with lids (Nunc mfg no. 242811). […] The plates were allowed to cool and set for approximately an hour before they were stored overnight in closed anaerobic chambers at room temperature in the chemical/biological hood. The next morning, the chambers harboring the plates were opened and allowed to air dry for approximately 1 hour before using.
# Plates were incubated in a closed chamber at 37° C. for 1 day. The number of colonies arising and their sizes were scored. […] Butanol concentrations of 0.4% and 0.6% were chosen to screen for tolerance.
# [3] = test system: mutant spoT DPD1848 line as compared to wild type EC100; assay type: cell-based, E. coli; conditions: for % improved spoT growth over wt: approximately 18 hours, spoT mutant percent growth minus wild type percent growth
# Method: Kinetic growth studies were performed for the DPD1848 and the control (EC100) using the Bioscreen C Automated Microbial Growth Curve Analyis System (Oy Growth Curves Ab Ltd., Helsinki, Finland), which is an automated 96 well plate system, that monitors growth of many cultures simultaneously, each in a volume of 150 μl. Overnight triplicate cultures of each strain were grown and diluted (1:10) into either LB or LB freshly supplemented with 0.2%, 0.3%. 0.4% or 0.6% 1-butanol (w/v). The growth of each culture was followed for approximately 18 hours. The triplicates were averaged and plotted in FIG. 3 as the final 18 hour time point, normalized to EC100, and given as the percent growth inhibition relative to the no butanol control for each strain.
# An additional kinetic growth study was performed as described above. The data is shown in FIG. 4 plotted as OD600 over time for the DPD1848 spoT mutant (A), and wild type (B, EC100).
# A Bioscreen experiment, as described in Example 3, was used to compare growth of the mutant spoT DPD1848 line as compared to wild type EC100 in the following chemicals:
# The growth of each culture was followed for approximately 18 hours. Triplicate samples were averaged, and expressed as the percent growth relative to the no chemical control for each strain. The data given in Table 8 is represented as percent growth improvement of the spoT mutant relative to wild type, which is the spoT mutant percent growth minus the wild type percent growth for each challenge.
# [4] = test system: rpoZ insertion line (JW3624) and wild type BW25113; conditions: 0.4% 1-butanol; FIG. 5
# Source text: The growth points of triplicate cultures were averaged and plotted in FIG. 5 as absorbance at OD600.
# [5] = test system: rpoZ::kan line JW3624 and wild type control BW25113; conditions: 0.4 and 0.6% 1-butanol; FIG. 8
# Method: Cultures were grown in LB medium containing 0%, 0.4% or 0.6% 1-butanol in shake flasks. The experiments were performed by inoculating 100 ml of medium in a 250 ml plastic flask with 2 ml of an overnight culture grown from a single colony grown at 37° C. and incubating with shaking for approximately two doubling times (1 hour), to an OD600 between 0.2 and 0.3. Each culture was split into five 25 ml cultures in plastic screw top 125 ml flasks and the cultures were maintained at 37° C. in a shaking water bath at 200 rpm. The OD600 was monitored at 0, 30, 90, 120 190, and 260 minutes.
# In the cultures above, a final time point was taken at 18 hr and used to calculate growth yield as a function of 1-butanol challenge. For each line grown in 0, 0.4% or 0.6% 1-butanol, the final 18 hour time point was divided by the no 1-butanol 18 hr time point.
# [6] = test system: relA::kan line (strain JW2755) and the parent BW25113; assay type: cell-based, E. coli K12
# Method: A strain of E. coli K12 having a kanamycin marker insertion in the relA coding region (relA::kan) is available in the Keio knockout collection that is described in Example 4. Overnight cultures of the relA::kan line (strain JW2755) and the parent BW25113 were inoculated with fresh colonies and grown in LB at 37° C. with shaking. The next day the cultures were diluted 1:100 into 100 ml of fresh LB in a 1 liter flask and grown for approximately 2 hours. The culture was split into 20 ml aliquots in 125 ml plastic screw top flasks. One culture remained unaltered serving as the no add control, and various concentrations of either 2-butanol or isobutanol were added to the remaining flasks. Absorbance (OD600) was monitored over time. Using a 3 hr time point for growth in isobutanol and a 2.5 hr time point for growth in 2-butanol, fractional growth yields were determined and percent improvement was calculated by subtracting […] and multiplying by 100.
# [7] = test system: Lactobacillus plantarum PN0512; assay: Growth rate in Lacto Synthetic Medium with isobutanol, parental control; assay type: cell-based; conditions: for Growth rate: PN0512, 30° C., LSM
# Method: (§1) Strains MS0280 and MS0281, and Lactobacillus plantarum PN0512 (ATCC #PTA-7727), were tested for tolerance to isobutanol. The strains were streaked on semi-synthetic medium plates, pH 6 (medium composition: 10 mM ammonium sulfate, 5 mM potassium phosphate buffer, pH 6.0, 50 mM MES, pH 6.0, 2 mM MgCl2, 0.7 mM CaCl2, 50 μM MnCl2, 1 μM FeCl3, 1 μM ZnCl2, 1.72 μM CuCl2, 2.53 μM CoCl2, 2.42 μM Na2MoO4, 2 μM thiamine hydrochloride, 10 mM glucose, 0.01% casamino acids, 0.2% yeast extract and 1.5% agar), from frozen stock cultures. The plates that the two mutants (MS0280 and MS0281) were streaked onto also included chloramphenicol at 10 μg/ml. The plates were incubated overnight at 30° C. under anaerobic conditions. The next day, overnight cultures were started by inoculating Lacto Synthetic Medium (LSM; medium composition: 10 mM ammonium sulfate, 5 mM potassium phosphate buffer, pH 6.0, 50 mM MES, pH 6.0, 2 mM MgCl2, 0.7 mM CaCl2, 50 μM MnCl2, 1 μM FeCl3, 1 μM ZnCl2, 1.72 μM CuCl2, 2.53 μM CoCl2, 2.42 μM Na2MoO4, 2 μM thiamine hydrochloride, 10 mM glucose, 0.01% casamino acids and 0.2% yeast extract) with a diluted (1:6) culture with an initial OD600 of 0.02. These overnight cultures were allowed to incubate at 30° C. in a gently shaking water bath. The next morning, the overnight cultures were diluted to have an initial OD600 of 0.1, in a volume of 220 ml of LSM. These starter cultures were allowed to incubate at 30° C. in a gently shaking water bath for 1.25 hours, to ensure the cultures were not in a lag phase. At this time, 20 ml aliquots were dispensed to duplicate flasks containing different volumes of isobutanol, to give final concentrations of 0, 0.5, 1, 1.5 and 2%. The growth of each flask was followed by taking OD600 readings every hour. The natural log of the OD600 values were plotted on a linear scale vs time.
# [8] = test system: L. plantarum spoT mutant MS0281; assay: Growth rate in Lacto Synthetic Medium with isobutanol, spoT mutant MS0281; assay type: cell-based, Lactobacillus plantarum; conditions: for Growth rate: MS0281, 30° C., LSM
# Method: as §1
# [9] = test system: L. plantarum spoT mutant MS0280; assay: Growth rate in Lacto Synthetic Medium with isobutanol, spoT mutant MS0280; assay type: cell-based, Lactobacillus plantarum; conditions: for Growth rate: MS0280, 30° C., LSM
# Method: as §1
smiles,measurement,setting,value
CCCCO [1-butanol],Growth of spoT and rpoZ lines relative to EC100 (difference between 4 and 2 hr time points),[1],improved growth
same,Concentration at which only pinpoint colonies were seen,[2],0.6%
same,Concentration from which colonies were progressively smaller,[2],≥ 0.2%
same,Concentrations at which no colony formation was observed after overnight incubation,[2],≥ 0.7 % (w/v)
same,Tolerance of spoT mutant versus wild type strain in terms of growth rate,"[3]; all concentrations of 1-butanol tested (0.2%, 0.3%, 0.4%, 0.6% w/v), FIG. 4",more tolerant
same,% improved spoT growth over wt,[3]; chemical at 0.2% (w/v),11.4%
same,% improved spoT growth over wt,[3]; chemical at 0.3% (w/v),13.8%
same,% improved spoT growth over wt,[3]; chemical at 0.4% (w/v),about 16.5%
same,% improved spoT growth over wt,"[3]; chemical at 0.4% (w/v), listed as 1-BuOH",16.5%
same,% improved spoT growth over wt,[3]; chemical at 0.6% (w/v),9.7%
same,Butanol tolerant phenotype of rpoZ insertion line (OD600 growth),[4],butanol tolerant phenotype was seen
same,Growth yield of rpoZ mutant versus wild type (18 hr time point divided by no 1-butanol 18 hr time point),[5],higher growth yields than wild type
CCC(C)O (stereo not drawn) [2-butanol],% improved spoT growth over wt,[3]; chemical at 0.80% (w/v),about 7%
same,% improved spoT growth over wt,"[3]; chemical at 0.80% (w/v), listed as 2-BuOH",7.2%
same,% improved spoT growth over wt,[3]; chemical at 1.20% (w/v),0%
same,% improved spoT growth over wt,[3]; chemical at 1.40% (w/v),0%
same,% improved spoT growth over wt,[3]; chemical at 1.60% (w/v),0%
same,Percent improvement of fractional growth yield of relA mutant relative to the parent,"[6]; 0.6% 2-butanol, 2.5 hr time point, FIG. 10B",small improvement
same,Percent improvement of fractional growth yield of relA mutant relative to the parent,"[6]; 0.8% 2-butanol, 2.5 hr time point, FIG. 10B",small improvement
CCC(C)=O [2-butanone],% improved spoT growth over wt,[3]; chemical at 3% (w/v),about 3%
"CCC(C)=O [MEK, methyl ethyl ketone]",% improved spoT growth over wt,[3]; chemical at 2.50% (w/v),0%
same,% improved spoT growth over wt,[3]; chemical at 3% (w/v),3.1%
same,% improved spoT growth over wt,[3]; chemical at 3.50% (w/v),4.3%
same,% improved spoT growth over wt,[3]; chemical at 4% (w/v),33.5%
CC(C)CO [isobutanol],Growth rate,[7]; isobutanol concentration 0.5%,0.424 μ/hour
same,Growth rate,[7]; isobutanol concentration 1%,0.385 μ/hour
same,Growth rate,[7]; isobutanol concentration 1.5%,0.364 μ/hour
same,Growth rate,[7]; isobutanol concentration 2%,0.349 μ/hour
same,Growth rate inhibition,"[7]; the parent (PN0512), 0.5% isobutanol, growth rates in presence and absence of isobutanol compared",9%
same,% improved spoT growth over wt,[3]; chemical at 0.80% (w/v),about 13.5%
same,% improved spoT growth over wt,"[3]; chemical at 0.80% (w/v), listed as IsoBuOH",13.5%
same,% improved spoT growth over wt,[3]; chemical at 1.20% (w/v),12.1%
same,% improved spoT growth over wt,[3]; chemical at 1.40% (w/v),11.4%
same,% improved spoT growth over wt,[3]; chemical at 1.60% (w/v),10.7%
same,Growth rate,[8]; isobutanol concentration 0.5%,0.467 μ/hour
same,Growth rate,[8]; isobutanol concentration 1%,0.426 μ/hour
same,Growth rate,[8]; isobutanol concentration 1.5%,0.397 μ/hour
same,Growth rate,[8]; isobutanol concentration 2%,0.359 μ/hour
same,Growth rate inhibition,"[8]; the mutants (MS0281), 0.5% isobutanol, growth rates in presence and absence of isobutanol compared",5%
same,Growth rate,[9]; isobutanol concentration 0.5%,0.464 μ/hour
same,Growth rate,[9]; isobutanol concentration 1%,0.426 μ/hour
same,Growth rate,[9]; isobutanol concentration 1.5%,0.382 μ/hour
same,Growth rate,[9]; isobutanol concentration 2%,0.359 μ/hour
same,Growth rate inhibition,"[9]; the mutants (MS0280), 0.5% isobutanol, growth rates in presence and absence of isobutanol compared",5%
same,Percent improvement of fractional growth yield of relA mutant relative to the parent,"[6]; 0.8% isobutanol, 3 hr time point, FIG. 10A",small improvement
